This is an account of results in ChEMBL document CHEMBL1743141, “Membrane transporters in drug development” (Nat Rev Drug Discov, 2010).

Format in all cases: ADME
The target in series [1] is T1, Organic anion transporter 3 (Homo sapiens, UniProt Q8TCC7).
T1 sequence (Q8TCC7 whole entry): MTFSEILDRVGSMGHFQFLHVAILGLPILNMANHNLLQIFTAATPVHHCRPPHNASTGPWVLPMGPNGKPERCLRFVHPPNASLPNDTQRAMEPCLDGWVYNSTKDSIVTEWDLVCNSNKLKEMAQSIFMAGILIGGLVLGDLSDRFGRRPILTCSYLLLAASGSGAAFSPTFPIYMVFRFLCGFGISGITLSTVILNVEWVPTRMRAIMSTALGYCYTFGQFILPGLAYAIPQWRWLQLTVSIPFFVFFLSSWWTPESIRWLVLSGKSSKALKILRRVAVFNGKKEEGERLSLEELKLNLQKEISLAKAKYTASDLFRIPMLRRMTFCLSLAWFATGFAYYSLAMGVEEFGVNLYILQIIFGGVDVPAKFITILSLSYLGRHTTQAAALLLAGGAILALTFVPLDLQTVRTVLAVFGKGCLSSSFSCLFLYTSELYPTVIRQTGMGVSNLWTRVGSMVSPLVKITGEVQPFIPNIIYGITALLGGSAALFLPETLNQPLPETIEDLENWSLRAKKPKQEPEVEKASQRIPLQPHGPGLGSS
Kind of series: Substrates of transporters of clinical importance in the absorption and disposition of drugs, OAT3.

Series [2] deals with T2, ATP-binding cassette sub-family C member 4 (Homo sapiens, UniProt O15439).
T2 sequence (O15439 whole entry): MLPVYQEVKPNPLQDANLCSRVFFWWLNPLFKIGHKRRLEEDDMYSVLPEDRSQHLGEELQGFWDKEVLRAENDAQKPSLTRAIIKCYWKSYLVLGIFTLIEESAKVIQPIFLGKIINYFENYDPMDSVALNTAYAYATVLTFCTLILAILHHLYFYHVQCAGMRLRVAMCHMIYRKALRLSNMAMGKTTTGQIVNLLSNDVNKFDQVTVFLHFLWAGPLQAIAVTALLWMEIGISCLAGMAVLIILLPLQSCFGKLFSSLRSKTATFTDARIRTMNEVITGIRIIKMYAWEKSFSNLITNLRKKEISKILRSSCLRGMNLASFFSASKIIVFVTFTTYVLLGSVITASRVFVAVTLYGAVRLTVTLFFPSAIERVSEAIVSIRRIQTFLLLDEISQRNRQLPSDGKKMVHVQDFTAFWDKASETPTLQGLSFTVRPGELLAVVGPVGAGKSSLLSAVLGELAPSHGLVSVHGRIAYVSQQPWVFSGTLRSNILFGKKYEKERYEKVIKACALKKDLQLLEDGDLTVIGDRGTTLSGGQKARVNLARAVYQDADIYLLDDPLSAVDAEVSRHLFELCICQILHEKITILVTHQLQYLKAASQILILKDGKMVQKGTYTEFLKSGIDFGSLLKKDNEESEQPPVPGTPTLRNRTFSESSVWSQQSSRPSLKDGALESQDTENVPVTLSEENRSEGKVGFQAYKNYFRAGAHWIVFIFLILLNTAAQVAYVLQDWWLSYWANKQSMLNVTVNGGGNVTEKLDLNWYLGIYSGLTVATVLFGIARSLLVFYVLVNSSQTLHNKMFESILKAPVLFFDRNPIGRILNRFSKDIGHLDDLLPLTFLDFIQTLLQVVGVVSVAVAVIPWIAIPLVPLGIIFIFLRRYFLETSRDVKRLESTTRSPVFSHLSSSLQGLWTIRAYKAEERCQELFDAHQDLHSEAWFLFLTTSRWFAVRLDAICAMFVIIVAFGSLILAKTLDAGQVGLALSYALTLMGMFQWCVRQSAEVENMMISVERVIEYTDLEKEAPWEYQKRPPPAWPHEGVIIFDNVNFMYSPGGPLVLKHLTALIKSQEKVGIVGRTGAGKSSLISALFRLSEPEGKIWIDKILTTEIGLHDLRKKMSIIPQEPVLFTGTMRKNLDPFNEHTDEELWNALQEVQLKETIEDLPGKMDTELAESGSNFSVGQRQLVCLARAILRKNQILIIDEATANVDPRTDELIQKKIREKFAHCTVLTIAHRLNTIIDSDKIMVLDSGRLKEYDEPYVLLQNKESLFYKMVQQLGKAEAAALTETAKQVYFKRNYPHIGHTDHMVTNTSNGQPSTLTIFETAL
Kind of series: Substrates of transporters of clinical importance in the absorption and disposition of drugs, MRP4.

Series [3] has as its target T3, Solute carrier organic anion transporter family member 1B1 (Homo sapiens, UniProt Q9Y6L6).
T3 sequence (Q9Y6L6 whole entry): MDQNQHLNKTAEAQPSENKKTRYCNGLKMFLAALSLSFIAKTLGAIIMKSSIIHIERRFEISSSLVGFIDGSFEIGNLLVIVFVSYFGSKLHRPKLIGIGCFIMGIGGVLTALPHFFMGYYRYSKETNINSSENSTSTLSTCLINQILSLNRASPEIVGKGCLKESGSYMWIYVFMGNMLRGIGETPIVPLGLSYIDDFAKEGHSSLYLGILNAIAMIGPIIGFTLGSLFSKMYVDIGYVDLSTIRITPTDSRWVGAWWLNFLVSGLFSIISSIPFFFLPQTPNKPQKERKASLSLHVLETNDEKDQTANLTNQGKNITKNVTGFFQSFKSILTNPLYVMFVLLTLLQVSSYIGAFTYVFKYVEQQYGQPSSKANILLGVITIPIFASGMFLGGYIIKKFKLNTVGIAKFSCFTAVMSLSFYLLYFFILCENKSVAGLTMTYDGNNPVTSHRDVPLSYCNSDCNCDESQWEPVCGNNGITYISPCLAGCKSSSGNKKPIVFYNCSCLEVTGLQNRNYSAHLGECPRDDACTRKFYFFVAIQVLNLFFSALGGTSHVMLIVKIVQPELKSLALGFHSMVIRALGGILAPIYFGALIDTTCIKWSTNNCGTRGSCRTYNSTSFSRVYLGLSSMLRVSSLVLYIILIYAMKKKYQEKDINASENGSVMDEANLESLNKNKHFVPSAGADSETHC
The series is described as follows: Substrates of transporters of clinical importance in the absorption and disposition of drugs, OATP1B1.

For series [4], the target named is T4, Solute carrier organic anion transporter family member 1B3 (Homo sapiens, UniProt Q9NPD5).
T4 sequence (Q9NPD5 whole entry): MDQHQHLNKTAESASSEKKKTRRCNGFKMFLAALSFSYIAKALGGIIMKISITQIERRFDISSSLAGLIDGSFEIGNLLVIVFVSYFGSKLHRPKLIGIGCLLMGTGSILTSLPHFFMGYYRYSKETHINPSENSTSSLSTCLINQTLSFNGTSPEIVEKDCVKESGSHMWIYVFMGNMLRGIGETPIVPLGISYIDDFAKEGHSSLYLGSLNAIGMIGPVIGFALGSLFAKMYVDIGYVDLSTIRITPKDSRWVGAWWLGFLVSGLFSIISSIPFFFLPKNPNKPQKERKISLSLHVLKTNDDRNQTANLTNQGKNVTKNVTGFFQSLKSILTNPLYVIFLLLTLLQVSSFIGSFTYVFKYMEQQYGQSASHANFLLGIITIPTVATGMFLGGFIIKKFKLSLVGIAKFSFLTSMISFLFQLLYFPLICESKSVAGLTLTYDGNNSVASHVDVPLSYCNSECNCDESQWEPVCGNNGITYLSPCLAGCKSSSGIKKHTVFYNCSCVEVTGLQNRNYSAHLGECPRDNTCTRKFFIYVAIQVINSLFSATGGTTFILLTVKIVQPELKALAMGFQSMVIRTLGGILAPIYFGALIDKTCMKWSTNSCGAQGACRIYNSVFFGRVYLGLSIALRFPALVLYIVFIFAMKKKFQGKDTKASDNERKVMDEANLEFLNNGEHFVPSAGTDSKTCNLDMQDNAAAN
The series is described as follows: Substrates of transporters of clinical importance in the absorption and disposition of drugs, OATP1B3.

In series [5] the target is ATP-binding cassette sub-family C member 2 (Homo sapiens, UniProt Q92887). The series is described as follows: Substrates of transporters of clinical importance in the absorption and disposition of drugs, MRP2.
ATP-binding cassette sub-family C member 2, sequence (Q92887 whole entry): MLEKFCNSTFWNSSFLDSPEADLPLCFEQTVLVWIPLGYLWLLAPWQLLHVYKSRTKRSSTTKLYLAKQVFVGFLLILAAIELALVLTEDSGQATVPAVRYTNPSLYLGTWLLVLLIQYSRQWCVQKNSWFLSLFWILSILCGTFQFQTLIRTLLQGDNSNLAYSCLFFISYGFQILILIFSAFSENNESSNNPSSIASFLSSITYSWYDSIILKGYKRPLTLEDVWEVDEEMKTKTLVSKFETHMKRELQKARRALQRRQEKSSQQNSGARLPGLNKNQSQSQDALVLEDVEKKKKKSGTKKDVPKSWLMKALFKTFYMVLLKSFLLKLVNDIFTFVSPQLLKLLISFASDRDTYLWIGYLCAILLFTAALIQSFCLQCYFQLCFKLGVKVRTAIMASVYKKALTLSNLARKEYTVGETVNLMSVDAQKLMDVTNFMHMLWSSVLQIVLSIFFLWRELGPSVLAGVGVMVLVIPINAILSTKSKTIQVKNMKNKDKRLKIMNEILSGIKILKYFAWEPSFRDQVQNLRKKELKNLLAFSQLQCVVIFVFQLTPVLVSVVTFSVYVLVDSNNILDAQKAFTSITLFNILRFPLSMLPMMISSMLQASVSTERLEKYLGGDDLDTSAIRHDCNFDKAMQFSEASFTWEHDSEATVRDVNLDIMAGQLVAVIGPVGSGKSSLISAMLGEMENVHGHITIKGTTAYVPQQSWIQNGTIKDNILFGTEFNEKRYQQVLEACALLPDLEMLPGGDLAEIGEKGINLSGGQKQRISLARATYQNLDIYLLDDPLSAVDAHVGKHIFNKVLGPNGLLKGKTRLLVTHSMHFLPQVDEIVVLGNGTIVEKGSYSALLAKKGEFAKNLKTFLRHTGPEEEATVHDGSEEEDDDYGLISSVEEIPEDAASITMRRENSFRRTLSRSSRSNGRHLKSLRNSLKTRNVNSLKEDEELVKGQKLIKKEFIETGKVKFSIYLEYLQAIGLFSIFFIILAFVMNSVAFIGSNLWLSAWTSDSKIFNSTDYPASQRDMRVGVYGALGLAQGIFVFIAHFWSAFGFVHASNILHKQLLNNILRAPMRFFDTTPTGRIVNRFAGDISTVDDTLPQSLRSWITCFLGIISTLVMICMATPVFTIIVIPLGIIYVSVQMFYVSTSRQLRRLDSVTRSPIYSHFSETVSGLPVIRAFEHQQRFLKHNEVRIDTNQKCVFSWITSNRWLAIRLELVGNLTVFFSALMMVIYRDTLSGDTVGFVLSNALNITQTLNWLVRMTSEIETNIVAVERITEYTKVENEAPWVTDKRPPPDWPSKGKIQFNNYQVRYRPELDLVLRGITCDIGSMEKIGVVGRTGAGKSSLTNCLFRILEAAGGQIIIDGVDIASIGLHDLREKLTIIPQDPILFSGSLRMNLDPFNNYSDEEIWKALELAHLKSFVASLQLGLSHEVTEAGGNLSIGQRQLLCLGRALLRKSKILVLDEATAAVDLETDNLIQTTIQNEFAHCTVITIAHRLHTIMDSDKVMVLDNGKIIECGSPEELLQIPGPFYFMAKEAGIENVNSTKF
The target in series [6] is T5, Solute carrier family 22 member 6 (Homo sapiens, UniProt Q4U2R8).
T5 sequence (Q4U2R8 whole entry): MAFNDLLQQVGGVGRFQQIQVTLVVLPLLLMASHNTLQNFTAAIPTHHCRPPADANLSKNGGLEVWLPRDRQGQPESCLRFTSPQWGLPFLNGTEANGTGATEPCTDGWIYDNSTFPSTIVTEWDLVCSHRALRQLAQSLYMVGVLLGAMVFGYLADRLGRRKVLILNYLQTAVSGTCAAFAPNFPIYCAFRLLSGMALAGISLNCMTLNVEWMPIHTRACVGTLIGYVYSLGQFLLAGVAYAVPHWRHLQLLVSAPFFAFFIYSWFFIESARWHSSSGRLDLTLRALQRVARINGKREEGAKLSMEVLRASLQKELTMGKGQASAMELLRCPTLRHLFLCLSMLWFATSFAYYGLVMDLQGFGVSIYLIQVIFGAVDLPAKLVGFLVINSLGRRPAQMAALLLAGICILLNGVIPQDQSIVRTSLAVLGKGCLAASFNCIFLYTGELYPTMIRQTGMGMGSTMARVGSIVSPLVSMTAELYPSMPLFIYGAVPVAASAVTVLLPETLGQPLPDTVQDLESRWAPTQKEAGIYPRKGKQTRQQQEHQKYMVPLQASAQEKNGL
The series is described as follows: Substrates of transporters of clinical importance in the absorption and disposition of drugs, OAT1.

In series [7] the target is T6, Solute carrier organic anion transporter family member 2B1 (Homo sapiens, UniProt O94956).
T6 sequence (O94956 whole entry): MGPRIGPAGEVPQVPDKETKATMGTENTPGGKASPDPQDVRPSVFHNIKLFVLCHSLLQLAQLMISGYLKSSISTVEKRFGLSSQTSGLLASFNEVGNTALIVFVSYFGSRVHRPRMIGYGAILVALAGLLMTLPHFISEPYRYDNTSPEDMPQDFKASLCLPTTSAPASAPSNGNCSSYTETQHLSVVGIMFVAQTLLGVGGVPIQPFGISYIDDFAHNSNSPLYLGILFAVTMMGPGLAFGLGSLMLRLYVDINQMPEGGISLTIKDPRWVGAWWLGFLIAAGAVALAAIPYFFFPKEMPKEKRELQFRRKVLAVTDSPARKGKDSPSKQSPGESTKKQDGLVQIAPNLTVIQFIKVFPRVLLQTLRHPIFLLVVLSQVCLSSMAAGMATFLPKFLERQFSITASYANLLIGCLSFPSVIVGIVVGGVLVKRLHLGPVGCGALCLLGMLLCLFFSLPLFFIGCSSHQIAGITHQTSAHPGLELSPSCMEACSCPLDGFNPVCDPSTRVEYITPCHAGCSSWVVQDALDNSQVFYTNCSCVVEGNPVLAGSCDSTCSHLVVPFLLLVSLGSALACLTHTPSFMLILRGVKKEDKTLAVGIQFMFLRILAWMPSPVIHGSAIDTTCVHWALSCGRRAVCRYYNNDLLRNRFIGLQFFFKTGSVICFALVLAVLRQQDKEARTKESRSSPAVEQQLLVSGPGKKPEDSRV
Kind of series: Substrates of transporters of clinical importance in the absorption and disposition of drugs, OATP2B1.

`NS(=O)(=O)c1cc(C(=O)O)c(NCc2ccco2)cc1Cl` [FUROSEMIDE]: the Activity result in series [1] and in series [2] was “transporter substrate” each time.

For `CCCCNc1cc(C(=O)O)cc(S(N)(=O)=O)c1Oc1ccccc1` [BUMETANIDE], in series [1], the Activity entry was “transporter substrate”.

`CCCCC(=O)N(Cc1ccc(-c2ccccc2-c2nnn[nH]2)cc1)[C@H](C(=O)O)C(C)C`: the Activity entry in series [3], in series [4] and in series [5] was “transporter substrate” each time.

As for `Nc1ncnc2c1ncn2CCOCP(=O)(O)O` [ADEFOVIR], the Activity result in series [6] and in series [2] was “transporter substrate” each time.

Regarding `Cc1cn([C@H]2C[C@H](N=[N+]=[N-])[C@@H](CO)O2)c(=O)[nH]c1=O` [ZIDOVUDINE], the Activity result in series [6] is listed as “transporter substrate”.

As for `COc1ccc(Cl)cc1C(=O)NCCc1ccc(S(=O)(=O)NC(=O)NC2CCCCC2)cc1` [GLYBURIDE], in series [7], the Activity result is on record as “transporter substrate”.

Regarding `Nc1ccn([C@H]2CC[C@@H](CO)O2)c(=O)n1` [ZALCITABINE], in series [6], the Activity entry is “transporter substrate”.

For `Nc1ccn(C[C@@H](CO)OCP(=O)(O)O)c(=O)n1.O.O` [CIDOFOVIR], the Activity entry in series [6] was “transporter substrate”.

Take `C[C@H](Cn1cnc2c(N)ncnc21)OCP(=O)(O)O` [TENOFOVIR ANHYDROUS]: the Activity entry in series [6] and in series [2] was “transporter substrate” throughout.

For `CCCc1nc(C(C)(C)O)c(C(=O)O)n1Cc1ccc(-c2ccccc2-c2nnn[nH]2)cc1` [OLMESARTAN], the Activity entry in series [3], in series [4] and in series [5] was “transporter substrate” in each case.

Turning to `CO/N=C(\C(=O)N[C@@H]1C(=O)N2C(C(=O)O)=CCS[C@H]12)c1csc(N)n1` [CEFTIZOXIME], the Activity entry in series [1] was “transporter substrate”.

For the compound `N[C@@H](C(=O)N[C@@H]1C(=O)N2C(C(=O)O)=C(Cl)CS[C@H]12)c1ccccc1` [CEFACLOR ANHYDROUS], the Activity result in series [1] is reported as “transporter substrate”.
